Measurements taken from PMC10459693, “Toward Stability Enhancement of NTS1R-Targeted Radioligands: Structural Interventions on [^99mTc]Tc-DT1” (Pharmaceutics, 2023).
Peptide text beside a SMILES is read from it. * marks the point of attachment. Palmitoyl = CCCCCCCCCCCCCCCC(=O)*; X1 = NCCNCC(CNCCN)C(=O)*

Tested on: AsPC-1 cells
Assay: NTS1R-specific uptake and internalization in AsPC-1 cells
Format: cell-based, human
Experimental: The NTS1R-specific internalization of [^99mTc]Tc-DT1/7/8/9 radioligands was compared in AsPC-1 cells. The cells were seeded in 6-well plates (1 × 10^6 cells per well) and left to grow overnight. The following day, the medium was aspirated, and the cells were washed twice with internalization medium (2 mL IM: RPMI supplemented with 1% v/v FBS) on ice. They were placed on the bench, and warm IM (1200 μL 37 °C) was added per well, followed by radioligand solution (150 μL, 250 fmol) and either IM (150 μL total: T; upper wells) or NT (10^−5 M in IM, non-specific: NS; lower wells). The plates were placed in the Incubator-Orbital Shaker at 37 °C for 1 h, and the incubation was interrupted by placing the plates on ice. The supernatant was collected in RIA tubes, and the cells were washed with 1 mL phosphate-buffered saline (PBS, pH 7.4, 4 °C) containing 0.5% w/v BSA, and the washing was also collected in the same RIA tube. Cells were treated twice for 5 min with glycine buffer (600 μL, 50 mM glycine, 0.1 M NaCl, pH 2.8), and supernatants were collected (membrane bound fraction, MB). The cells were washed again with 1 mL ice-cold PBS-BSA buffer, which was discarded. Finally, cells were lysed (2 × 600 μL 1 M NaOH), and the lysates were collected (internalized fraction, IF). Sample radioactivity was measured on the γ-counter. Specific values for MB and IF were acquired by subtracting NS values from T ones. Results are expressed as mean percentage of added radioactivity ± sd, n = 3. In addition, time-dependent internalization in AsPC-1 cells was directly compared for [^99mTc]Tc-DT1/9 by incubation at 37 °C for 15 min, 30 min, 1 h, and 2 h, following the above-described protocol for each time point.

Compound: CCCCCCCCCCCCCCCC(=O)NCCCC[C@H](NC(=O)C(CNCCN)CNCCN)C(=O)N[C@@H](CCCNC(=N)N)C(=O)N[C@@H](CCCNC(=N)N)C(=O)N1CCC[C@H]1C(=O)N[C@@H](Cc1ccc(O)cc1)C(=O)N[C@H](C(=O)N[C@@H](CC(C)C)C(=O)O)[C@@H](C)CC [[^99mTc]Tc-DT9, metal not drawn] (X1-K(Palmitoyl)RRPYIL-OH)
- internalization, specific of added radioactivity (1 h at 37 °C): 16.53 ± 1.12%
- specific cell uptake of added radioactivity (internalized + membrane bound) (1 h at 37 °C): 16.76 ± 1.16%
- specific uptake of added radioactivity (time-dependent internalization) (2 h at 37 °C): 21.5 ± 1.0%
